# Reference: patent publication US20240165052A1 (priority 2021, published 2024)
# Experiments:
# [1] = at 20° C.; cited from earlier work
# [2] = pH of phosphate buffer (donor medium) with (S)-ketamine HCl or OTF; type: physicochemical
# [3] = system: porcine mucosa (mucosa oesophagus); experiment: in vitro permeation of (S)-ketamine, Franz diffusion cell; settings: 37° C.
smiles,measurement,setting,value
"NC(CO)(CO)CO [TRIS, tris(hydroxymethyl)aminomethane]",pKs,[1],8.2
CN[C@]1(c2ccccc2Cl)CCCCC1=O.Cl [(S)-ketamine HCl],Buffer + (S)-ketamine HCl pH at 22° C.,[2]; acidic buffer (pH 4.99 at 22° C.),4.92
same,Buffer + (S)-ketamine HCl pH at 22° C.,[2]; alkaline buffer (pH 8.33 at 22° C.),7.81
same,Buffer + (S)-ketamine HCl pH at 22° C.,[2]; neutral buffer (pH 7.46 at 22° C.),6.64
"CNC1(c2ccccc2Cl)CCCCC1=O (racemic) [(S)-ketamine, (S)-(±)-2-(2-chlorophenyl)-2-(methylamino)cyclohexan-1-one]",permeation rate of S-ketamine,"[3]; 2.77 mg (S)-ketamine HCl on mucosa, acidic buffer as donor, FIG. 1",lowest permeation rate
same,permeation of S-ketamine,"[3]; 2.77 mg (S)-ketamine HCl on mucosa, neutral buffer as donor, FIG. 1",best
same,permeation rate of S-ketamine,"[3]; 0.287 cm^2 OTF formulation 1 + 70 μL acidic buffer, FIG. 2",lowest permeation rate
same,permeation of S-ketamine,"[3]; 0.287 cm^2 OTF formulation 1 + 70 μL alkaline buffer, FIG. 2",best
